{
  "source": "patent US4401677A",
  "about": "“Enkephalinase inhibitors” (E. R. Squibb & Sons, Inc., priority 1981, dated 1983)",
  "data": [
    {"tested_on": "enkephalinase", "assay": "not given", "conditions": "cited from earlier work", "values": [
      {"smiles": "O=C(O)CNC(=O)C(CS)Cc1ccccc1", "note": "(racemic) [thiorphan, [(DL-3-mercapto-2-benzylpropanoyl)]-glycine]", "inhibitor of enkephalinase in vitro": "inhibitor of enkephalinase in vitro in nanomolar concentration"}
    ]},
    {"target": "T1, enkephalinase purified from membrane fractions of sheep corpus striatum (Ovis aries, UniProt A0ACI6S0K5)", "T1 sequence (A0ACI6S0K5 2-750)": "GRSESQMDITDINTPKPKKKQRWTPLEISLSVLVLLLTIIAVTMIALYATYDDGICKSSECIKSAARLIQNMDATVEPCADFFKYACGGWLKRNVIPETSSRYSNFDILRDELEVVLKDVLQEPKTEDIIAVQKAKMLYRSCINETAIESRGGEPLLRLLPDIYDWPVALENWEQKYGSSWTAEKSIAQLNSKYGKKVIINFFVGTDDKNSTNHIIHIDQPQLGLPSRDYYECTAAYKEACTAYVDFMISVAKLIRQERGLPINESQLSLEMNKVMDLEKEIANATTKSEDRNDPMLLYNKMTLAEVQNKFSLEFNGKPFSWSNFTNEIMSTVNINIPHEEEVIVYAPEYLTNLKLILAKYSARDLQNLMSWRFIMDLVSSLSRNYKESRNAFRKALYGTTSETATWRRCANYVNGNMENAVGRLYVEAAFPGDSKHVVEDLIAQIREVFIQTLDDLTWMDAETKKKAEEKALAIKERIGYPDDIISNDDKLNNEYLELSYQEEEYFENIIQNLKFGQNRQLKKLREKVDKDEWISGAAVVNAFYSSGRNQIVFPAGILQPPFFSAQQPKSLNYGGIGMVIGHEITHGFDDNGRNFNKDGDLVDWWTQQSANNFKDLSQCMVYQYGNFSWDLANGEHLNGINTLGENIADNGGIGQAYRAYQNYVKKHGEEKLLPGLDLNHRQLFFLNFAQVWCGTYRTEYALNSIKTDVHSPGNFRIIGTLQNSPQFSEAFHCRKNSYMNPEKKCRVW", "assay": "inhibition of cleavage of [^3 H-Tyr^1, Leu^5 ]-enkephalin by purified enkephalinase (radiochromatographic method)", "format": "biochemical", "conditions": "70 nM substrate, pH 7.0, 15 minutes at 37°; called I50", "description": "Frozen sheep striatia were homogenized in 20 volumes of 50 mM Tris (i.e., 2-amino-2-hydroxymethyl-1,3-propanediol)-hydrochloric acid buffer, pH 7.7, and centrifuged at 37,000×g. for 15 minutes. The sedimented material (membrane fraction), after being washed three times by resuspension and recentrifugation, was solubilized by stirring with half the original volume of 50 mM Tris-hydrochloric acid buffer, pH 7.7, containing 1% Triton X-100 (i.e., polyethylene glycol p-isooctylphenyl ether) nonionic detergent, followed by centrifugation for 2 hours at 37,000×g. […] Protein was eluted from the column with a one liter gradient of 0-0.4 M sodium chloride in the same buffer mixture, with 8.7 ml. fractions being collected.\nActivity of the enzyme for purification and inhibitor studies was determined by the following radiochromatographic method. […] An aliquot of 0.01 ml. of acidified reaction mixture was spotted onto a Whatman LK 50 silica gel thin-layer chromatography plate along with the appropriate peptide standards. After development of the plate in a solvent composed of isopropanol:ethyl acetate:5% acetic acid (2:2:1), the spots corresponding to Tyr, Tyr-Gly, Tyr-Gly-Gly, and unreacted enkephalin (Tyr-Gly-Gly-Phe-Leu), as visualized with ninhydrin reaction, were scraped from the plate, and the incorporated radioactivity was counted in a liquid scintillation counter.", "units": {"IC50": "nM"}, "values": [
      {"smiles": "CC(CS)C(=O)N[C@@H](CCCNC(=N)N)C(=O)O", "note": "(mixture of isomers) [Ex. 1, N-(DL-3-Mercapto-2-methyl-1-oxopropyl)-L-arginine]", "IC50": 150},
      {"smiles": "N=C(N)NCCC[C@H](NC(=O)C(CS)Cc1ccccc1)C(=O)O", "note": "(mixture of isomers) [Ex. 2, N-[DL-2-(Mercaptomethyl)-1-oxo-3-phenylpropyl]-L-arginine]", "IC50": 85},
      {"smiles": "CC(CS)C(=O)N[C@@H](Cc1c[nH]c2ccccc12)C(=O)O", "note": "(mixture of isomers) [Ex. 3, N-(DL-3-Mercapto-2-methyl-1-oxopropyl)-L-tryptophan]", "IC50": 5},
      {"smiles": "CC(CS)C(=O)N[C@@H](Cc1ccc(O)cc1)C(=O)O", "note": "(mixture of isomers) [Ex. 4, N-(DL-3-Mercapto-2-methyl-1-oxopropyl)-L-tyrosine]", "IC50": 2.5},
      {"smiles": "CC(CS)C(=O)N[C@@H](Cc1ccc(O)c(O)c1)C(=O)O", "note": "(mixture of isomers) [Ex. 5, 3-Hydroxy-N-(DL-3-mercapto-2-methyl-1-oxopropyl)-L-tyrosine]", "IC50": 5},
      {"smiles": "CC(C)CC(CS)C(=O)N[C@@H](CCCNC(=N)N)C(=O)O", "note": "(mixture of isomers) [Ex. 7, (±)-N^2-[2-(Mercaptomethyl)-4-methyl-1-oxopentyl]-L-arginine]", "IC50": 30},
      {"smiles": "C[C@H](CS)C(=O)N[C@@H](Cc1ccc(O)c(O)c1)C(=O)O", "note": "[Ex. 6, 3-Hydroxy-N-(D-3-mercapto-2-methyl-1-oxopropyl)-L-tyrosine]", "IC50": 2.5}
    ]}
  ]
}
